Among the data in ChEMBL document CHEMBL1149624, “9-Substituted berberine derivatives as G-quadruplex stabilizing ligands in telomeric DNA” (Bioorg Med Chem, 2007) are IC50, Tm and ΔTm values, retold here.

The nature of assay [1]: Inhibition of telomerase expressed in MCF7 cells by TRAP assay. It counts as cell-based, Homo sapiens.
Assay [2] is described as follows: Inhibition of amplification in human telo21 G-quadruplex DNA by PCR stop assay.
Assay [3] is filed under the species Homo sapiens. Briefly: Binding affinity to human telo21 G-quadruplex DNA assessed as thermal stability in tris-HCl buffer at pH 7.4.
Assay [4] is filed under the species Homo sapiens. Nature of the assay: Binding affinity to human telo21 G-quadruplex DNA assessed as change in thermal stability in tris-HCl buffer at pH 7.4.

In general, IC50 refers to the midpoint of a concentration-inhibition curve. The low end stands for greater potency, the high end for weaker potency. As usually defined, the ΔTm is the shift of the melting midpoint relative to a reference. For the compound `COc1ccc2cc3[n+](cc2c1OC)CCc1cc2c(cc1-3)OCO2` [BERBERINE CHLORIDE], the IC50 in assay [1] amounted to 75 µM; in assay [2] it was 2.1 µM. For the same compound, in assay [3], the Tm was 44 °C. The ΔTm in assay [4] is 3.9 °C.

Regarding `CCN(CC)CCOc1c(OC)ccc2cc3[n+](cc12)CCc1cc2c(cc1-3)OCO2`, the IC50 in assay [1] is 25 µM; in assay [2] it was 2.3 µM. Also, in assay [3], the Tm came to 57 °C. The ΔTm in assay [4] was 16.9 °C.

On to `COc1ccc2cc3[n+](cc2c1OCCCN1CCNCC1)CCc1cc2c(cc1-3)OCO2`, for which the IC50 in assay [1] stood at 7.5 µM; in assay [2], 0.7 µM. In assay [3], the Tm was 63.1 °C. The ΔTm in assay [4] was determined as 23 °C.

As to `COc1ccc2cc3[n+](cc2c1OCCN(C(C)C)C(C)C)CCc1cc2c(cc1-3)OCO2`, the IC50 is 25 µM in assay [1] and 2.3 µM in assay [2]. The Tm in assay [3] was determined as 51.7 °C. Besides, the ΔTm in assay [4] is 11.6 °C.
